This is an account of results in patent US20050074426A1, “Fusions of cytokines and tumor targeting proteins” (priority 2002, published 2005).

pKd: −log10 of the molar value. Like-named read-outs stand apart in the source and are kept apart here.

Data set [1] has as its system L-M mouse fibroblasts (ATCC CCL1.2).
The conditions of data set [2]: cited from earlier work.
A short description of data set [3]: lethality in RMA-T tumor bearing mice. Conditions: 3 days after treatment, single dose i.p. The data set is classed as in vivo, C57BL/6 mice. Here is the method: (§1) In vivo studies on animal models were approved by the Ethical Committee of the San Raffaele H Scientific Institute and performed according to the prescribed guidelines. C57BL/6 (Charles River Laboratories, Calco, Italy) (16-18 g) were challenged with 5×10^4 RMA-T or TSA living cells, respectively, s.c. in the left flank. Ten-twelve days after tumor implantation, mice were treated, i.p., with 250 μl TNF or RGD-TNF solutions, diluted with endotoxin-free 0.9% sodium chloride. […] Each experiment was carried out with 5 mice per group. The tumor growth was monitored daily by measuring the tumor size with calipers. The tumor area was estimated by calculating r1×r2 π, whereas tumor volume was estimated by calculating r1×r2×r3×4/3 π, where r1 and r2 are the longitudinal and lateral radii, and r3 is the thickness of tumors protruding from the surface of normal skin. Animals were killed before the tumor reached 1.0-1.3 cm diameter. Tumor sizes are shown as mean±SE (5-10 animals per group) and compared by t-test.
Murine TNF administered to animals bearing established s.c. RMA-T tumors, causes 24 h later a reduction in the tumor mass and haemorragic necrosis in the central part of the tumor, followed by a significant growth delay for few days (71). […] In a first set of experiments we investigated the effect of various doses (i.p.) of TNF or RGD-TNF on animal survival. […]

In data set [4] the target is T1, p75TNFR (Homo sapiens, UniProt P20333).
T1 sequence (P20333 23-461): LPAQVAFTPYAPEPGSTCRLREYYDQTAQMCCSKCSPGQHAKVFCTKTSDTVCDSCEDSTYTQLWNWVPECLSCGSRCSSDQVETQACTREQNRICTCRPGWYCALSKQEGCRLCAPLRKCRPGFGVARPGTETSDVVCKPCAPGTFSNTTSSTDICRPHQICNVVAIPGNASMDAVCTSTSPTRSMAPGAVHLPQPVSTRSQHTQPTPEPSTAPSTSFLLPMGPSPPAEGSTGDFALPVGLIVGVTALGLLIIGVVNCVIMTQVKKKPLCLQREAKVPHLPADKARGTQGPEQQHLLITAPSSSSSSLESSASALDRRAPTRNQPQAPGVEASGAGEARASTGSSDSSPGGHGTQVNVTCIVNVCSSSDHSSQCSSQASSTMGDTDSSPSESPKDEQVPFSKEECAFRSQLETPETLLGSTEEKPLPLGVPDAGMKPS
The following applies: cited from earlier work.

Data set [5] concerns RMA-T lymphoma. As to the kind of experiment: anti-tumor activity and survival in RMA-T lymphoma bearing mice. It counts as in vivo, C57BL/6 mice. The method, then: The Rauscher virus-induced RMA lymphoma of C57BL/6 origin (69) were maintained in vitro in RPMI 1640, 5% fetal bovine serum (FBS), 100 U/ml penicillin, 100 μg/ml streptomycin, 0.25 μg/ml amphotericin B, 2 mM glutamine and 50 μM 2-mercaptoethanol. RMA-T was derived from the RMA cell line by transfection with a construct encoding the Thy 1.1 allele and cultured as described Moro, 1997 #28].
as §1, with “flank.” for “flank. Ten-twelve days after tumor implantation, mice were treated, i.p., with 250 μl TNF or RGD-TNF solutions, diluted with endotoxin-free 0.9% sodium chloride.”
To avoid excessive suffering, the animals were killed when the tumor diameter was greater than 1-1.3 cm.

For data set [6], the target named is T2, p55TNFR (Homo sapiens, UniProt P19438).
T2 sequence (P19438 30-455): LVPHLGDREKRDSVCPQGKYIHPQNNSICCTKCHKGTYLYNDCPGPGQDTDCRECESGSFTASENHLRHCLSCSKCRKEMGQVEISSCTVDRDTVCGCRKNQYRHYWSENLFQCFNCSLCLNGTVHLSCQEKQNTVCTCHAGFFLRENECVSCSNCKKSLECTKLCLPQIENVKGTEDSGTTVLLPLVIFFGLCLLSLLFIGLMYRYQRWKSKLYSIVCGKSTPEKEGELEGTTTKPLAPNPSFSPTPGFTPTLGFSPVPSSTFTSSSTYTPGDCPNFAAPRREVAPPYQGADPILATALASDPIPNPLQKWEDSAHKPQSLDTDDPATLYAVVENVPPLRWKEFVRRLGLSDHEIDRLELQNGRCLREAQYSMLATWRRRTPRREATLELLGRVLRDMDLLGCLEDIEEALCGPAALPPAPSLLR
The following applies: cited from earlier work.

Setting [7] is: dose 1 μg i.v., treated 12 days after tumor implantation.
Where [8] appears, read: dose 2 μg i.v., treated 12 days after tumor implantation.
Setting [9] is: dose 4 μg i.v., treated 12 days after tumor implantation.

Regarding “TNF: Tumor Necrosis Factor-α; in the examples murine recombinant Met-TNF1-156 produced in E. coli”, the “in vitro cytotoxic activity” value in data set [1] is given as “(1.2±0.14)×10^8 units/mg”. The maximum tolerated dose was 218-410 μg/m^2 in data set [2] (bolus, intravenous, humans) and 8 to 10 µg/kg in data set [2] (systemic administration). Moreover, the “LD50 (lethality)” value in data set [3] was determined as 6 µg. Moreover, the pKd was 10.00 in data set [4] and 9.30 in data set [6]. For the same substance, the “Survival (%) Day 14” value in data set [5] (setting [7]) was found to be 100%; in data set [5] (setting [8]) it was 100%; in data set [5] (setting [9]), 100%; in data set [5] (dose 8 μg i.v., treated 12 days after tumor implantation), 0%; in data set [5] (dose 16 μg i.v., treated 12 days after tumor implantation) it was 0%. Besides, the results for the “Survival (%) Day 22” value in data set [5] (setting [7]), in data set [5] (setting [8]) and in data set [5] (setting [9]) were 22%, 37% and 70%, respectively. The figures for the “Survival (%) Day 32” value in data set [5] (setting [7]), in data set [5] (setting [8]) and in data set [5] (setting [9]) were 0%, 0% and 30%, respectively. The “Survival (%) Day 90 (2nd ch.)” value in data set [5] (dose 4 μg i.v., re-challenge with 50.000 RMA-T at day 90) amounted to 0%. Further, the “Survival (%) Day 37” value in data set [5] (setting [9]) was 10%. The animals cured entry in data set [5] (single treatment, RGD-TNF 16 μg, TNF all doses) is given as “no animals at all were cured”.

The pKd is −log10 of the Kd, conventionally taken in molar units.
